Experimental data from patent publication US20230365516A1, “COMPOUNDS FOR CANCER THERAPY AND IMAGING” (Washington University, priority 2020, published 2023).
Entries after “also recorded” stand apart in the source; their conditions may differ. Like-named read-outs stand apart in the source and are kept apart here. Values belong to the compound of their own block, whether it stands above or below them.

Assays:
MM.1S cells [1] = assay: Cell viability assay (CellTiter-Glo), MM.1S cells; format: cell-based, human; conditions: for EC50: MM1.S
Method: (§1) Cell culture and Reagents: Human MM cell lines MM1.S, U266, and OPM2 were cultured in RPMI-1640 medium supplemented with 10% fetal bovine serum, 100 units/mL penicillin, 100 µg/mL streptomycin at 37° C., 5% CO2. PBMCs were purchased from Lonza Bioscience, USA and maintained overnight in RPMI-1640 medium supplemented with 10% fetal bovine serum, 100 units/mL penicillin, 100 µg/mL streptomycin at 37° C., 5% CO2 before using for experiments. IL-6 and IGF-1 were purchased from R&D Systems. PD98059 was obtained from Cell Signaling Technology. Z-VAD-FMK was purchased from Santa Cruz. Bortezomib was obtained from Sigma. LS1090 [2-((7-nitrobenzo[c][1,2,5]oxadiazol-4-yl)thio)ethyl (3-(trifluoromethyl)phenyl)carbamate] was purchased from MolPort, Inc.M. Maybridge library was purchased from Thermo Fisher Scientific, NeXT Diversity 3500 and Diversity SAR 3500 sets were gifts from NCI.
(§2) Cell viability assay: Twenty thousand MM1.S, U266, OPM2, and PBMCs in 100 µL of growth media were added per well in a 96-well plate. The cells were incubated for 24 h with serial dilutions of LS1090 stock solution (10 mM in DMSO) or BTZ stock solution (1 mM in DMSO). Dilutions were prepared in growth media. Cells viability was assessed using the CellTiter-Glo luminescence-based assay (Promega). After adding 100 µL CellTiter-Glo reagent, relative luminescence units (RLU) were measured using the Synergy2 plate reader (BioTek) and expressed as a percentage of the untreated cell controls.

U266 cells [2] = assay: Cell viability assay (CellTiter-Glo), U266 cells; format: cell-based, human
Method: as §1, §2

[3] = tested on: chymotrypsin-like activity of proteasomes; assay: Proteasome-Glo Chymotrypsin-Like activity assay in MM.1S cells; format: cell-based, human
Method: Proteasome activity assays: MM.1S cells were seeded in a white 96-well plate at a density of 20000 per well. Cells were treated with 1 µML LS1090 or 100 nM Bz for 4 h before accessing chymotrypsin-like activity using Proteasome-Glo™ Chymotrypsin-Like, (Promega). After adding the Proteasome-Glo™ reagent, luminescence was determined as relative light units (RLU) using the Synergy2 plate reader (BioTek).

[4] = tested on: MM1.S-GFP-Luc disseminated MM xenograft
From the text: MM1.S cells stably transfected with GFP-firefly Luciferase (MM1.S-GFP-Luc), when administered intravenously (IV) in Fox Chase SCID beige mice, home to the bone marrow (BM) and are readily detectable by bioluminescence imaging (BLI) after 15-21 days from inoculation. On the third week from tumor inoculation, detecting the presence of the MM lesions in BM in mice with BLI photon flux of 106, we initiated therapy.
The mice were subjected to four dosages of therapy in two days apart over two weeks. The therapy were stopped after four dosages and the tumor progression over time was monitored by in vivo BLI once a week. […] Paralysis or loss of 15% of the original weight were taken as criteria of end point of the mice.
Each treated mouse received two doses per week separated by 3 days over two weeks for a total of four dosages, and BLI was used to monitor tumor progression. […] The endpoint for the study includes paralysis, loss of 20% of the original weight or sudden death due to the tumor burden before any other symptom appeared.
Fox Chase SCID Beige mice (From in house colony) (8-10 weeks old) were implanted with MM1.S cells stably transfected with GFP and CBR Luciferase (MM1.S-GFP-Luc) (2 million cells in 100 µL DPBS per mouse) by tail vein injection. […] The progression of tumor was monitored by whole-body BLI once a week post tumor inoculation. […]

caspase 3/7 = assay: Caspase-Glo3/7 assay in MM.1S cells; format: cell-based, human
Method: Apoptosis and caspase activation assays: Caspase3/7 activity was measured using Caspase-Glo3/7 Assay System (Promega). MM.1S cells were seeded in a white 96-well plate at a density of 20000 cells per well. Cells were pretreated with 20 µmol/L PD98059 followed by incubation with 1 µM LS1090 for 4 h at 37° C., 5% CO2 before accessing caspase 3/7 activity. Caspase-Glo3/7 reagent was added directly to the cells and incubated for 30 min before recording luminescence using the Synergy2 plate reader (BioTek). Data were represented as a fold change from the untreated cells control. Kinetics of apoptosis and necrosis was monitored using RealTimeGlo Annexin V Apoptosis and Necrosis Assay (Promega). MM.1S cells were treated with 1 µM LS1090 and incubated in the presence of 100 µL the RealTimeGlo Annexin V Apoptosis and Necrosis reagent at 37° C., 5% CO2. The luminescence and fluorescence signals were monitored for 24 h. Relative luminescence units (RLU) and relative fluorescence units (RFU) were measured at different time points using the Synergy2 plate reader (BioTek).

U266 cells [5] = assay: RealTime-Glo Annexin V Apoptosis and Necrosis Assay, U266 cells; format: cell-based, human; conditions: monitored 24 h
PBMCs = assay: Cell viability assay (CellTiter-Glo), nontumor PBMCs; format: cell-based; conditions: 24 h incubation, at the EC50/IC50 for MM1.S (0.49 µM) and higher
Method: Cell culture and Reagents: Human MM cell lines MM1.S, U266, and OPM2 were cultured in RPMI-1640 medium supplemented with 10% fetal bovine serum, 100 units/mL penicillin, 100 µg/mL streptomycin at 37° C., 5% CO2. PBMCs were purchased from Lonza Bioscience, USA and maintained overnight in RPMI-1640 medium supplemented with 10% fetal bovine serum, 100 units/mL penicillin, 100 µg/mL streptomycin at 37° C., 5% CO2 before using for experiments. […] Bortezomib was obtained from Sigma.

MM.1S cells [6] = assay: RealTime-Glo Annexin V Apoptosis and Necrosis Assay, MM.1S cells; format: cell-based, human
From the text: LS1090 activates ERK1/2 to induce apoptosis in MM cells via a p53-independent pathway: Chemotherapeutics exert their effects via multiple cell death pathways, including apoptosis and necrosis. To determine the dominant mechanism of LS1090-induced MM cell death, RealTime-Glo Annexin V Apoptosis and Necrosis Assay were used, which report both pathways simultaneously. The method reports apoptosis by detecting phosphatidylserine on the outer leaflet of cell membranes and necrosis by measuring plasma membrane integrity. […] This delayed necrosis onset points to a cell death mechanism where pro-apoptosis induction transforms into secondary necrosis when phagocytes are not available to remove apoptotic cells.
Apoptosis and caspase activation assays: Caspase3/7 activity was measured using Caspase-Glo3/7 Assay System (Promega). MM.1S cells were seeded in a white 96-well plate at a density of 20000 cells per well. […] Caspase-Glo3/7 reagent was added directly to the cells and incubated for 30 min before recording luminescence using the Synergy2 plate reader (BioTek). […] Kinetics of apoptosis and necrosis was monitored using RealTimeGlo Annexin V Apoptosis and Necrosis Assay (Promega). […] The luminescence and fluorescence signals were monitored for 24 h. Relative luminescence units (RLU) and relative fluorescence units (RFU) were measured at different time points using the Synergy2 plate reader (BioTek).

p53 = assay: Western blot of p53 expression in MM.1S cells; format: cell-based, human
Method: (§3) ERK is known to exert its pro-apoptotic function by upregulating p53 and downregulating Bcl-2 expression. […] In contrast, the expression of pro-apoptotic protein, Bax, increased within 1 h post-treatment (FIG. 5H).
(§4) Cell extract preparation and Western blotting: Protein extracts were prepared by washing cells with PBS (pH 7.4) and suspending in RIPA lysis buffer (20 mM Tris-HCI (pH 7.5), 150 mM NaCl, 1 mM Na2EDTA, 1 mM EGTA, 1% NP-40) containing protease and phosphatase inhibitors (Sigma). Equal amounts of protein, as determined by the BCA protein assay (Thermo Fisher Scientific), were subjected to SDS-PAGE (12% gels; Bio-Rad), followed by transfer to nitrocellulose membrane. Membrane were incubated with 1:1000 anti-ERK1/2 (Thr202/Tyr204, anti-phosphoERK1/2 (Thr202/Tyr204), anti-p53, anti-Bcl2, anti-Bax (Cell Signaling Technology) and anti-βActin (Santa Cruz). Secondary antibodies consisted of horseradish peroxidase-conjugated goat anti-rabbit IgG or goat anti-mouse IgG (Sigma). Detection was done by the enhanced chemiluminescence method (Thermo Fisher Scientific).

5TGM1 = assay: Growth inhibition of mouse MM cell line 5TGM1; format: cell-based
[7] = tested on: IGR Cap1, HT1080, and MDA MB231; assay: Viability of selected cancer cell lines after 24 h with LS1090; format: cell-based; conditions: 1 µM LS1090, 24 h
Method: Cells were treated with LS1090 for 24h, followed by assessment of viability using CellTitler-Glow assay. n=4 for each condition.
Additionally, the viability of selected cancer cell lines were evaluated (IGR Cap1, HT1080, and MDA MB231) after 24 h incubation with LS1090 (see, e.g. FIGS. 9-11).

Bax = assay: Western blot of Bax expression in MM.1S cells; format: cell-based, human
Method: as §3, §4

OPM2 cells = assay: Cell viability assay (CellTiter-Glo), OPM2 cells; format: cell-based; conditions: OPM-2, human OPM2 cells
Method: as §1
as §2, with “The cells were incubated for 24 h with serial dilutions of LS1090 stock solution (10 mM in DMSO) or BTZ stock solution (1 mM in DMSO). Dilutions were prepared in growth media.” left out

Bcl-2 = assay: Western blot of Bcl-2 expression in MM.1S cells; format: cell-based, human
Method: as §3, §4

ERK1/2 = assay: Western blot of ERK1/2 activation in MM.1S cells; format: cell-based, human
Method: ERK1/2 signaling plays an essential role in the cascade of apoptosis-mediated cell death. To interrogate its involvement, MM.1S cells were treated with LS1090 and Western blots used to determine ERK1/2 activation. […] Given that ERK1/2 signaling can utilize caspase-dependent or independent pathways to induce apoptosis, LS1090 mediated activation of caspase 3/7 in MM.1S cells was examined in the presence or absence of ERK1/2 activation inhibitor, PD98059. […] The consequential effect of caspase 3/7 activation on cell death was further validated by determining the viability of LS1090-treated MM1.S cells in the presence or absence of the caspase inhibitor, Z-VAD-fmk.
Cell extract preparation and Western blotting: Protein extracts were prepared by washing cells with PBS (pH 7.4) and suspending in RIPA lysis buffer (20 mM Tris-HCI (pH 7.5), 150 mM NaCl, 1 mM Na2EDTA, 1 mM EGTA, 1% NP-40) containing protease and phosphatase inhibitors (Sigma). Equal amounts of protein, as determined by the BCA protein assay (Thermo Fisher Scientific), were subjected to SDS-PAGE (12% gels; Bio-Rad), followed by transfer to nitrocellulose membrane. […]

Compound: Z-VAD-fmk [reference compound]
LS1090-induced cell death on co-incubation with Z-VAD-fmk (MM.1S cells [1]; MM1.S cells, p< 0.0001): inhibited this event

Compound: CC(C)C[C@H](NC(=O)[C@H](Cc1ccccc1)NC(=O)c1cnccn1)B(O)O [BTZ, Bortezomib, reference compound]
EC50 (MM.1S cells [1]; Homo sapiens, MM.1S cells, read-out: EC50 of BTZ alone): 2 nM
EC50 of BTZ with increasing concentration ratio of LS1090 to BTZ (MM.1S cells [1]; MM.1S cells, in combination with LS1090): 1.4 nM
sensitivity of U266 cells to BTZ relative to MM.1S cells (less sensitive) (U266 cells [2]; U266 versus MM.1S): 10 fold
chymotrypsin-like activity in MM.1S cells, BTZ ([3]; 0.1 µM, 4 h): efficiently inhibits
course of disease, BTZ ([4]; 0.5 mg/kg or 1.0 mg/kg IP, same regimen): experienced early remission and relapsed after 6-week post-inoculation
toxicity of BTZ dose over 1 mg/Kg ([4]; BTZ over 1 mg/Kg IP): lethal effect on mice after the second dose

Compound: COc1cccc(-c2cc(=O)c3ccccc3o2)c1N [PD98059, reference compound]
LS1090-triggered caspase 3/7 activity in the presence of PD98059 (caspase 3/7; MM.1S cells pretreated with 20 µmol/L PD98059, then 1 µM LS1090 4 h): inhibited

EC50 (MM.1S cells [1]; human MM.1S cells, 24 h, read-out: EC50, MM.1S): 490 nM
IC50 (MM.1S cells [1]; human MM1.S cells): 490 nM
IC50 (U266 cells [2]; U-266, human U266 cells): 440 nM
EC50 (U266 cells [2]; U-266, human U266 cells, 24 h): 440 nM
Compound: O=C(Nc1cccc(C(F)(F)F)c1)OCCSc1ccc([N+](=O)[O-])c2nonc12 [LS1090, 2-((7-nitrobenzo[c][1,2,5]oxadiazol-4-yl)thio)ethyl (3-(trifluoromethyl)phenyl)carbamate]
apoptosis-necrosis time pattern (U266 cells [5]): same apoptosis-necrosis pattern
cytotoxicity on PBMCs (PBMCs): significant toxic effect; also recorded: significant cytotoxicity
cells eradicated (MM.1S cells [1]; LS1090-treated MM1.S cells, absence of Z-VAD-fmk): 60%
cytotoxicity in the presence of recombinant IL-6 or IGF-1 (MM.1S cells [1]; MM.1S cells, 24 h): neither recombinant IL-6 nor IGF-1 blocked
time of apoptosis peak post-treatment (MM.1S cells [6]; MM cells treated with LS1090 (1 µM)): about 10 h
apoptosis-necrosis time pattern (MM.1S cells [6]; MM.1S cells, monitored 24 h): necrosis lagged apoptosis
p53 expression after treatment (p53): lack of p53 enhancement
cytotoxicity at 1 µM (U266 cells [2]; Homo sapiens, U-266, 1 µM LS1090, read-out: decrease of viability of U266 cells): 55%
IC50 (5TGM1; 5TGM1, mouse MM cell line 5TGM): 320 nM
EC50 (5TGM1; mouse MM cell line 5TGM1): 320 nM
chymotrypsin-like activity in MM.1S cells, LS1090 ([3]; 4 h incubation at ten-fold the concentration of BTZ): did not significantly perturb
increase in caspase 3/7 activity (caspase 3/7; MM.1S cells, 1 µM LS1090, 4 h incubation, fold change from untreated cells): over seven-fold increase
effect on viability of selected cancer cell lines [7]: had an effect on all tested cancer cell lines
time to increased Bax expression post-treatment (Bax): ≤ 1 h
IC50 (OPM2 cells): 490 nM
EC50 (OPM2 cells; 24 h): 490 nM
Bcl-2 expression after treatment (Bcl-2): did not downregulate
duration of activated ERK1/2 state (ERK1/2): sustained over 3 h
time to ERK1/2 phosphorylation post-treatment (ERK1/2): less than 1 h
